BigSolDB 2.1

CCOc1cccc(C=O)c1O
solubility (mole fraction)
Conditions	278.15 K	283.15 K	288.15 K	293.15 K	298.15 K	303.15 K	308.15 K	313.15 K
in acetone	0.155	0.217	0.272	0.325	0.384	0.446	0.523	0.605
in acetonitrile	0.104	0.154	0.206	0.254	0.303	0.352	0.415	0.498
in ethanol	0.0153	0.0195	0.0287	0.0433	0.0662	0.102	0.145	0.214
in ethyl acetate	0.134	0.174	0.209	0.25	0.294	0.344	0.403	0.497
in isopropanol	0.0095	0.0143	0.0197	0.0284	0.0437	0.0642	0.0925	0.151
in methanol	0.0196	0.0355	0.0567	0.0786	0.132	0.211	0.304	0.434
in methyl acetate	0.137	0.185	0.227	0.281	0.335	0.388	0.475	0.563
in n-butanol	0.0163	0.0206	0.0287	0.0398	0.0566	0.0795	0.116	0.164
in n-butyl acetate	0.0985	0.125	0.158	0.188	0.237	0.281	0.334	0.409
in n-propanol	0.0145	0.0198	0.0262	0.0395	0.0576	0.0824	0.124	0.176
in n-propyl acetate	0.105	0.136	0.164	0.205	0.248	0.312	0.374	0.464
in water	5.24e-05	6.55e-05	7.32e-05	8.68e-05	0.000106	0.000125	0.000155	0.000191
